From patent publication US4601984A, “Process to produce antibiotics X-14873 A, G and H” (Hoffmann-La Roche Inc., priority 1983, dated 1986)
Converted amounts (≈) assume the structure as drawn.

Legend:
[1] = system: Serratia marcescens SM; assay: Minimum Inhibitory Concentration; format: cell-based
[2] = system: E. tenella; assay: In vitro coccidiostatic activity; format: cell-based; conditions: Eimeria tenella, read-out: in vitro activity against E. tenella, active concentration
[3] = system: Bacillus subtilis; assay: Minimum Inhibitory Concentration; format: cell-based; conditions: NRRL558; Bacillus subtilis NRRL 558
[4] = system: Proteus mirabilis 190; assay: Minimum Inhibitory Concentration; format: cell-based
[5] = system: Sarcina lutea; assay: Minimum Inhibitory Concentration; format: cell-based; conditions: Micrococcus luteus, ATCC9341; Sarcina lutea ATCC 9341
[6] = system: Pseudomonas aeruginosa B; assay: Minimum Inhibitory Concentration; format: cell-based
[7] = system: Streptomyces cellulosae; assay: Minimum Inhibitory Concentration; format: cell-based; conditions: ATCC3313; Streptomyces cellulosae ATCC 3313
[8] = system: Bacillus megaterium; assay: Minimum Inhibitory Concentration; format: cell-based; conditions: Priestia megaterium, ATCC8011; Bacillus megaterium ATCC 8011
[9] = system: Microsporum audouini; assay: Minimum Inhibitory Concentration; format: cell-based
[10] = system: Staphylococcus aureus; assay: Minimum Inhibitory Concentration; format: cell-based; conditions: ATCC6538P; Staphylococcus aureus ATCC 6538P
[11] = system: Candida albicans; assay: Minimum Inhibitory Concentration; format: cell-based; conditions: NRRL477; Candida albicans NRRL 477
[12] = system: Salmonella typhi P58A; assay: Minimum Inhibitory Concentration; format: cell-based; conditions: Salmonella enterica, read-out: Minimum Inhibitory Concentration
[13] = system: ruminants; assay: Growth promotion and feed utilization in ruminants; format: in vivo, e.g. cattle
[14] = system: Saccharomyces cerevisiae; assay: Minimum Inhibitory Concentration; format: cell-based; conditions: ATCC4226; Saccharomyces cerevisiae ATCC 4226
[15] = system: Mycobacterium phlei; assay: Minimum Inhibitory Concentration; format: cell-based; conditions: Mycolicibacterium phlei, ATCC355; Mycobacterium phlei ATCC 355
[16] = system: Paecilomyces varioti; assay: Minimum Inhibitory Concentration; format: cell-based; conditions: ATCC25820; Paecilomyces varioti ATCC 25820
[17] = system: Bacillus sp. E; assay: Minimum Inhibitory Concentration; format: cell-based; conditions: ATCC27359; Bacillus sp. E ATCC 27359
[18] = Oral toxicity (LD50) in mice, 24 hours; conditions: mouse, in vivo
[19] = system: Trichophyton mentagrophytes; assay: Minimum Inhibitory Concentration; format: cell-based
[20] = system: Streptococcus faecium; assay: Minimum Inhibitory Concentration; format: cell-based; conditions: Enterococcus faecium, ATCC8043; Streptococcus faecium ATCC 8043
[21] = system: Klebsiella pneumoniae A; assay: Minimum Inhibitory Concentration; format: cell-based
[22] = system: Treponema hyodysenteriae; assay: Minimum inhibitory concentration against the agent of swine dysentery; format: cell-based; conditions: Brachyspira hyodysenteriae
[23] = system: Staphylococcus aureus Smith; assay: Minimum Inhibitory Concentration; format: cell-based
[24] = system: Bacillus sp. TA; assay: Minimum Inhibitory Concentration; format: cell-based; conditions: ATCC27860; Bacillus sp. TA ATCC 27860
[25] = system: Escherichia coli 257; assay: Minimum Inhibitory Concentration; format: cell-based
[26] = system: gram-positive bacteria; assay: Activity against gram-positive bacteria, summary; format: cell-based
[27] = system: volatile fatty acids produced in the rumen; assay: Ratio of volatile fatty acids produced in the rumen (GLC); format: in vivo, steer; conditions: for VFA Ratio: C3/(C2 + nC4): ± one standard deviation, 3 animals
[28] = system: Enterobacter cloacae 5699; assay: Minimum Inhibitory Concentration; format: cell-based
[29] = system: Penicillum digitatum; assay: Minimum Inhibitory Concentration; format: cell-based; conditions: Penicillum digitatum ATCC 26821
[30] = system: Strain X-14873; assay: Streptomycin sensitivity of the producing strain (disc); format: cell-based, Streptomyces sp. X-14873; conditions: Streptomyces, X14873; 10 mcg in 1/4" disc
[31] = Medication day 2, 30 g/ton in ration, nonmedicated 0.211 ± 0.019
[32] = Medication day 5, 30 g/ton in ration, nonmedicated 0.248 ± 0.058
[33] = Medication day 7, 30 g/ton in ration, nonmedicated 0.325 ± 0.166
[34] = Medication day 9, 30 g/ton in ration, nonmedicated 0.338 ± 0.164
[35] = Medication day 12, 30 g/ton in ration, nonmedicated 0.293 ± 0.148
[36] = Pre-medication day 1 (baseline)
[37] = Pre-medication day 3 (baseline)
[38] = Pre-medication day 5 (baseline)
[39] = Pre-medication day 8 (baseline)
[40] = Pre-medication day 10 (baseline)

CCC(C(=O)C(C)C(O)C(C)C1OC(O)(CC(=O)O)C(CC)C(O)C1C)C1OC(C)(C2(O)OC(CC)(C(O)CC)CC2C)CC1C (stereo not drawn) [Antibiotic X-14873A]
MIC [1]: 128 µg/mL (≈ 194 µM) | minimal effective concentration [2]: 200 µg/mL | MIC [3]: 3 µg/mL (≈ 4.55 µM) | MIC [4]: 128 µg/mL (≈ 194 µM) | MIC [5]: 3 µg/mL (≈ 4.55 µM) | MIC [6]: 128 µg/mL (≈ 194 µM) | MIC [7]: 12.5 µg/mL (≈ 19 µM) | MIC [8]: 3 µg/mL (≈ 4.55 µM) | MIC [9]: 100 µg/mL (≈ 152 µM) | MIC [10]: 6.3 µg/mL (≈ 9.56 µM) | MIC [11]: 62.5 µg/mL (≈ 94.9 µM) | MIC [12]: 128 µg/mL (≈ 194 µM) | efficiency of feed utilization in ruminant animals ([13]; administered orally): increases the efficiency of feed utilization | activity as a growth promotant in ruminants ([13]; ruminants, e.g. cattle): exhibit activity as a growth promotant in ruminants | MIC [14]: 500 µg/mL (≈ 759 µM) | MIC [15]: 3 µg/mL (≈ 4.55 µM) | MIC [16]: 125 µg/mL (≈ 190 µM) | MIC [17]: 0.8 µg/mL (≈ 1.21 µM) | LD50 at 24 h [18]: 120 mg/kg | MIC [19]: 100 µg/mL (≈ 152 µM) | MIC [20]: 0.1 µg/mL (≈ 0.152 µM) | MIC [21]: 128 µg/mL (≈ 194 µM) | MIC [22]: 5 µg/mL (≈ 7.59 µM) | MIC [23]: 64 µg/mL (≈ 97.1 µM) | MIC [24]: 3 µg/mL (≈ 4.55 µM) | MIC [25]: 128 µg/mL (≈ 194 µM) | effect on growth of gram-positive bacteria [26]: adversely affecting the growth of certain gram-positive bacteria | increase over control of the volatile fatty acid ratio vs lasalocid ([27]; 30 g/ton, compared with lasalocid): greater increase over control of the volitile fatty acid ratio than lasalocid | VFA Ratio: C3/(C2 + nC4) [27, 31]: 0.445 ± 0.075 | VFA Ratio: C3/(C2 + nC4) [27, 32]: 0.584 ± 0.328 | VFA Ratio: C3/(C2 + nC4) [27, 33]: 0.679 ± 0.448 | VFA Ratio: C3/(C2 + nC4) [27, 34]: 0.642 ± 0.387 | VFA Ratio: C3/(C2 + nC4) [27, 35]: 0.495 ± 0.242 | VFA Ratio: C3/(C2 + nC4) [27, 36]: 0.213 ± 0.016 | VFA Ratio: C3/(C2 + nC4) [27, 37]: 0.235 ± 0.036 | VFA Ratio: C3/(C2 + nC4) [27, 38]: 0.234 ± 0.042 | VFA Ratio: C3/(C2 + nC4) [27, 39]: 0.245 ± 0.046 | VFA Ratio: C3/(C2 + nC4) [27, 40]: 0.216 ± 0.038 | MIC [28]: 128 µg/mL (≈ 194 µM) | MIC [29]: 500 µg/mL (≈ 759 µM)

[H]/N=C(/N)N[C@H]1[C@H](O)[C@@H](O)[C@H](O[C@@H]2O[C@@H](C)[C@](O)(C=O)[C@H]2O[C@@H]2O[C@@H](CO)[C@H](O)[C@@H](O)[C@@H]2NC)[C@@H](N/C(N)=N\[H])[C@@H]1O [Streptomycin]
zone of inhibition at 10 µg/disc [30]: 13 mm

CC[C@@H](C(=O)[C@@H](C)[C@@H](O)[C@H](C)CCc1ccc(C)c(O)c1C(=O)O)[C@H]1O[C@](CC)([C@H]2CC[C@](O)(CC)[C@H](C)O2)C[C@@H]1C [Lasalocid, lasalocid, reference compound]
VFA Ratio: C3/(C2 + nC4) [27, 31]: 0.376 ± 0.109 | VFA Ratio: C3/(C2 + nC4) [27, 32]: 0.390 ± 0.073 | VFA Ratio: C3/(C2 + nC4) [27, 33]: 0.373 ± 0.015 | VFA Ratio: C3/(C2 + nC4) [27, 34]: 0.381 ± 0.064 | VFA Ratio: C3/(C2 + nC4) [27, 35]: 0.372 ± 0.056 | VFA Ratio: C3/(C2 + nC4) [27, 36]: 0.229 ± 0.013 | VFA Ratio: C3/(C2 + nC4) [27, 37]: 0.255 ± 0.051 | VFA Ratio: C3/(C2 + nC4) [27, 38]: 0.244 ± 0.060 | VFA Ratio: C3/(C2 + nC4) [27, 39]: 0.236 ± 0.041 | VFA Ratio: C3/(C2 + nC4) [27, 40]: 0.224 ± 0.011

CCC(C(=O)C(C)C(O)C(C)C1OC(C)(O)C(CC)C(O)C1C)C1OC(C)(C2(O)OC(CC)(C(O)CC)CC2C)CC1C (stereo not drawn) [Antibiotic X-14873H]
MIC [3]: 16 µg/mL (≈ 26 µM) | MIC [5]: 16 µg/mL (≈ 26 µM) | MIC [7]: > 1000 µg/mL | MIC [8]: 4 µg/mL (≈ 6.51 µM) | MIC [10]: 8 µg/mL (≈ 13 µM) | MIC [11]: > 1000 µg/mL | MIC [14]: > 1000 µg/mL | MIC [15]: > 1000 µg/mL | MIC [16]: > 1000 µg/mL | MIC [17]: 2 µg/mL (≈ 3.25 µM) | LD50 at 24 h [18]: 4000 mg/kg | MIC [20]: 2 µg/mL (≈ 3.25 µM) | MIC [24]: 8 µg/mL (≈ 13 µM) | effect on growth of gram-positive bacteria [26]: adversely affecting the growth of certain gram-positive bacteria | MIC [29]: > 1000 µg/mL

CCC(C(=O)C(C)C(O)C(C)C1OC(C)(O)C(CC)C(O)C1C)C1OC(C)(C23OC(CC)C(CC)(CC2C)O3)CC1C (stereo not drawn) [Antibiotic X-14873G]
MIC [3]: > 1000 µg/mL | MIC [5]: > 1000 µg/mL | MIC [7]: > 1000 µg/mL | MIC [8]: > 1000 µg/mL | MIC [10]: > 1000 µg/mL | MIC [11]: > 1000 µg/mL | MIC [14]: > 1000 µg/mL | MIC [15]: > 1000 µg/mL | MIC [16]: > 1000 µg/mL | MIC [17]: 8 µg/mL (≈ 13.4 µM) | LD50 at 24 h [18]: 4000 mg/kg | MIC [20]: 63 µg/mL (≈ 106 µM) | MIC [24]: > 1000 µg/mL | effect on growth of gram-positive bacteria [26]: adversely affecting the growth of certain gram-positive bacteria | MIC [29]: > 1000 µg/mL
